# ChEMBL document CHEMBL2331380, “Evaluation of potential Myt1 kinase inhibitors by TR-FRET based binding assay” (Eur J Med Chem, 2013)
# Assays:
# [1] = Binding affinity to human full-length His-tagged Myt1 kinase expressed in HEK293 cells at 3 ug/ml by TR-FRET based binding assay
# [2] = Binding affinity to human full-length His-tagged Myt1 kinase expressed in HEK293 cells at 30 ug/ml by TR-FRET based binding assay
SMILES,Activity [1] [%],Activity [2] [%]
CCCCCCCCCCCCCCCC(=O)NC[C@H]1O[C@H](OC[C@@H](COC(=O)CCCCCCCCCCCCCCC)OC(=O)CCCCCCCCCCCCCCC)[C@H](O)[C@@H](O)[C@H]1O,< 5,< 5
CCCCCCCCCCCCCCCC(=O)NC[C@H]1O[C@@H](OC[C@@H](COC(=O)CCCCCCCCCCCCCCC)OC(=O)CCCCCCCCCCCCCCC)[C@@H](O)[C@@H](O)[C@@H]1O,< 5,7.53
CCCCCCCCCCCCCCCC(=O)NC[C@H]1O[C@H](OC[C@@H](COC(=O)CCCCCCCCCCCCCCC)OC(=O)CCCCCCCCCCCCCCC)[C@@H](O)[C@@H](O)[C@@H]1O,< 5,< 5
CCCCCCCCCCCCCCCC(=O)NC[C@H]1O[C@H](OC[C@@H](COC(=O)CCCCCCCCCCCCCCC)OC(=O)CCCCCCCCCCCCCCC)[C@H](O)[C@@H](O)[C@@H]1O,< 5,< 5
CCCCCCCCCCCCCCCC(=O)NC[C@H]1O[C@@H](OC[C@@H](COC(=O)CCCCCCCCCCCCCCC)OC(=O)CCCCCCCCCCCCCCC)[C@H](O)[C@@H](O)[C@H]1O,< 5,< 5

# Other lines, results leading:
Activity [1] [%],Activity [2] [%],SMILES
< 5,< 5,CCCCCCCCCCCCCCCC(=O)NC[C@H]1O[C@@H](OC[C@@H](COC(=O)CCCCCCCCCCCCCCC)OC(=O)CCCCCCCCCCCCCCC)[C@H](O)[C@@H](O)[C@@H]1O
< 5,< 5,CCCCCCCC(=O)NC[C@H]1O[C@@H](OC[C@@H](COC(=O)CCCCCCC)OC(=O)CCCCCCC)[C@H](O)[C@@H](O)[C@@H]1O
